Experimental findings from ChEMBL document CHEMBL3272065 (J Med Chem, 1977) are described below.

A short description of data set [1]: Hydrolysis of the compound at pH 7.4 at 37 degC assessed as first-order rate coefficient at 3.4 x 10' -3 M. The format is physicochemical. The note with it: buffer, pH 7.4, 3400 µM.
Data set [2] can be described thus: Half life of the compound at pH 7.4 at 37 degC at 3.4 x 10' -3 M. It counts as physicochemical.

One may read the half-life as the time in which the quantity being followed falls by half. Low values mean rapid decline, high ones slow decline. Consider `O=[N+]([O-])c1cc([N+](=O)[O-])c(NCCCSCCCl)c(S(=O)(=O)O)c1`, for which, in data set [1], the K was found to be 2 ×10⁻³ /s. Besides, the half-life at 3400 µM in data set [2] is 5.83 min.
